Key:
Details in all cases: treatment: drug + dasatinib (fixed dose, not stated); 5 days
[1] = system: 769-P; experiment: GI50 of drug in presence of dasatinib; higher = less potent
Method: (§1)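 Primary HTS combination arm: 8 RCC cell lines treated with 8 doses (up to 10 uM) of each library drug plus a fixed dose of dasatinib (dose not stated) for 5 days; viability read by CellTiter-Glo and normalised to DMSO. GI50 was fitted with XLfit, AUC is the area under the dose-response curve, and minimum viability is the lowest fraction of DMSO viability across doses.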

[2] = system: 786-O; experiment: as above
Method: as §1

[3] = system: A498; experiment: as above
Method: as §1

[4] = system: ACHN; experiment: as above
Method: as §1

[5] = system: CAKI-1; experiment: as above
Method: as §1

[6] = system: SN12C; experiment: as above
Method: as §1

[7] = system: TK-10; experiment: as above
Method: as §1

[8] = system: UO-31; experiment: as above
Method: as §1

[9] = system: 769-P; experiment: minimum viability across doses, drug + dasatinib, relative to DMSO (fraction); higher = less growth inhibition
Method: as §1

[10] = system: 786-O; experiment: as above
Method: as §1

[11] = system: A498; experiment: as above
Method: as §1

[12] = system: ACHN; experiment: as above
Method: as §1

[13] = system: CAKI-1; experiment: as above
Method: as §1

[14] = system: SN12C; experiment: as above
Method: as §1

[15] = system: TK-10; experiment: as above
Method: as §1

[16] = system: UO-31; experiment: as above
Method: as §1

[17] = system: 769-P; experiment: AUC of dose-response viability curve, drug + dasatinib, normalised to DMSO (arbitrary (AUC of normalised viability)); higher = less growth inhibition
Method: as §1

[18] = system: 786-O; experiment: as above
Method: as §1

[19] = system: A498; experiment: as above
Method: as §1

[20] = system: ACHN; experiment: as above
Method: as §1

[21] = system: CAKI-1; experiment: as above
Method: as §1

[22] = system: SN12C; experiment: as above
Method: as §1

[23] = system: TK-10; experiment: as above
Method: as §1

[24] = system: UO-31; experiment: as above
Method: as §1

| Structure (SMILES) | GI50 of drug [2] | GI50 of drug [4] | GI50 of drug [1] | GI50 of drug [3] | GI50 of drug [5] | GI50 of drug [6] | GI50 of drug [7] | GI50 of drug [8] | minimum viability across doses [9] | minimum viability across doses [10] | minimum viability across doses [11] | minimum viability across doses [12] | minimum viability across doses [13] | minimum viability across doses [14] | minimum viability across doses [15] | minimum viability across doses [16] | AUC of dose-response viability curve [17] | AUC of dose-response viability curve [18] | AUC of dose-response viability curve [19] | AUC of dose-response viability curve [20] | AUC of dose-response viability curve [21] | AUC of dose-response viability curve [22] | AUC of dose-response viability curve [23] | AUC of dose-response viability curve [24] |
| --- | --- | --- | --- | --- | --- | --- | --- | --- | --- | --- | --- | --- | --- | --- | --- | --- | --- | --- | --- | --- | --- | --- | --- | --- |
| COc1cc2ncnc(Nc3cccc(Br)c3)c2cc1OC.Cl + Cc1nc(Nc2ncc(C(=O)Nc3c(C)cccc3Cl)s2)cc(N2CCN(CCO)CC2)n1 [dasatinib] | 2860 nM | 5.77 nM | 111 nM | > 10000 nM | 2490 nM | > 10000 nM | 884 nM | 8520 nM | 0.157 | 0.0127 | 0.835 | 0.181 | 0.237 | 0.547 | 0.124 | 0.0122 | 1.69 | 2.14 | 3.5 | 1.18 | 2.22 | 2.32 | 2.19 | 2.94 |
| CN(c1ncccc1CNc1nc(Nc2ccc3c(c2)CC(=O)N3)ncc1C(F)(F)F)S(C)(=O)=O.O=S(=O)(O)c1ccccc1 + Cc1nc(Nc2ncc(C(=O)Nc3c(C)cccc3Cl)s2)cc(N2CCN(CCO)CC2)n1 [dasatinib] | 222 nM | 96.6 nM | 1560 nM | 3510 nM | 966 nM | 4150 nM | 3290 nM | 3010 nM | 0.0401 | 0.00638 | 0.015 | 0.0114 | 0.039 | 0.012 | 0.15 | 0.0198 | 1.93 | 1.6 | 3.75 | 1.66 | 1.98 | 2.16 | 2.28 | 3.91 |
| CC(=O)NCC(=O)N1[C@H]2CC[C@H]1c1cc(Nc3ncc(C(F)(F)F)c(NC4CCC4)n3)ccc12 + Cc1nc(Nc2ncc(C(=O)Nc3c(C)cccc3Cl)s2)cc(N2CCN(CCO)CC2)n1 [dasatinib] | 18.1 nM | 24.1 nM | 118 nM | 625 nM | 30.6 nM | 128 nM | 429 nM | 711 nM | 0.028 | 0.0101 | 0.0199 | 0.0109 | 0.0773 | 0.0154 | 0.116 | 0.0156 | 1.61 | 0.86 | 2.34 | 1.17 | 1.11 | 1.47 | 1.83 | 2.3 |

More lines, main results first:

| GI50 of drug [2] | GI50 of drug [4] | Structure (SMILES) | GI50 of drug [1] | GI50 of drug [3] | GI50 of drug [5] | GI50 of drug [6] | GI50 of drug [7] | GI50 of drug [8] | minimum viability across doses [9] | minimum viability across doses [10] | minimum viability across doses [11] | minimum viability across doses [12] | minimum viability across doses [13] | minimum viability across doses [14] | minimum viability across doses [15] | minimum viability across doses [16] | AUC of dose-response viability curve [17] | AUC of dose-response viability curve [18] | AUC of dose-response viability curve [19] | AUC of dose-response viability curve [20] | AUC of dose-response viability curve [21] | AUC of dose-response viability curve [22] | AUC of dose-response viability curve [23] | AUC of dose-response viability curve [24] |
| --- | --- | --- | --- | --- | --- | --- | --- | --- | --- | --- | --- | --- | --- | --- | --- | --- | --- | --- | --- | --- | --- | --- | --- | --- |
| 149 nM | 26.5 nM | O=C(NOCC(O)CO)c1cc(Br)c(F)c(F)c1Nc1ccc(I)cc1F (stereo not drawn) + Cc1nc(Nc2ncc(C(=O)Nc3c(C)cccc3Cl)s2)cc(N2CCN(CCO)CC2)n1 [dasatinib] | 800 nM | 1560 nM | 680 nM | 1220 nM | 2540 nM | 1690 nM | 0.278 | 0.327 | 0.344 | 0.279 | 0.133 | 0.357 | 0.404 | 0.164 | 2.06 | 1.75 | 2.39 | 1.45 | 1.91 | 2.1 | 2.23 | 2.59 |
| > 10000 nM | > 10000 nM | COc1cccc(-c2cc(=O)c3ccccc3o2)c1N + Cc1nc(Nc2ncc(C(=O)Nc3c(C)cccc3Cl)s2)cc(N2CCN(CCO)CC2)n1 [dasatinib] | > 10000 nM | > 10000 nM | > 10000 nM | > 10000 nM | > 10000 nM | > 10000 nM | 0.645 | 0.541 | 0.908 | 0.511 | 0.612 | 0.658 | 0.655 | 1.08 | 2.48 | 2.58 | 3.37 | 2.01 | 2.27 | 2.49 | 2.57 | 3.99 |
| 1210 nM | 19.8 nM | CCN(CC)CCCCNc1ncc2cc(-c3cc(OC)cc(OC)c3)c(NC(=O)NC(C)(C)C)nc2n1 + Cc1nc(Nc2ncc(C(=O)Nc3c(C)cccc3Cl)s2)cc(N2CCN(CCO)CC2)n1 [dasatinib] | 1820 nM | 3570 nM | 80.1 nM | 366 nM | 1390 nM | 696 nM | 0.207 | 0.00578 | 0.139 | 0.042 | 0.0229 | 0.0905 | 0.258 | 0.0119 | 2.13 | 2.02 | 2.67 | 1.28 | 1.31 | 1.9 | 2.18 | 2.28 |
| 40.2 nM | 15.4 nM | COc1ccc(-c2cc3c(C)nc(N)nc3n([C@H]3CC[C@H](OCCO)CC3)c2=O)cn1 + Cc1nc(Nc2ncc(C(=O)Nc3c(C)cccc3Cl)s2)cc(N2CCN(CCO)CC2)n1 [dasatinib] | 94.6 nM | 491 nM | 41.7 nM | 79.4 nM | 62.1 nM | 129 nM | 0.0148 | 0.0021 | 0.161 | 0.0415 | 0.00992 | 0.0663 | 0.0233 | 0.00781 | 1.37 | 1.15 | 2.3 | 1 | 1.12 | 1.37 | 1.35 | 1.67 |

Reference: the supplement of paper PMC8149375
